The target of data set [1] is T1, Protein deacetylase HDAC6 (Homo sapiens, UniProt Q9UBN7).
T1 sequence (Q9UBN7 whole entry): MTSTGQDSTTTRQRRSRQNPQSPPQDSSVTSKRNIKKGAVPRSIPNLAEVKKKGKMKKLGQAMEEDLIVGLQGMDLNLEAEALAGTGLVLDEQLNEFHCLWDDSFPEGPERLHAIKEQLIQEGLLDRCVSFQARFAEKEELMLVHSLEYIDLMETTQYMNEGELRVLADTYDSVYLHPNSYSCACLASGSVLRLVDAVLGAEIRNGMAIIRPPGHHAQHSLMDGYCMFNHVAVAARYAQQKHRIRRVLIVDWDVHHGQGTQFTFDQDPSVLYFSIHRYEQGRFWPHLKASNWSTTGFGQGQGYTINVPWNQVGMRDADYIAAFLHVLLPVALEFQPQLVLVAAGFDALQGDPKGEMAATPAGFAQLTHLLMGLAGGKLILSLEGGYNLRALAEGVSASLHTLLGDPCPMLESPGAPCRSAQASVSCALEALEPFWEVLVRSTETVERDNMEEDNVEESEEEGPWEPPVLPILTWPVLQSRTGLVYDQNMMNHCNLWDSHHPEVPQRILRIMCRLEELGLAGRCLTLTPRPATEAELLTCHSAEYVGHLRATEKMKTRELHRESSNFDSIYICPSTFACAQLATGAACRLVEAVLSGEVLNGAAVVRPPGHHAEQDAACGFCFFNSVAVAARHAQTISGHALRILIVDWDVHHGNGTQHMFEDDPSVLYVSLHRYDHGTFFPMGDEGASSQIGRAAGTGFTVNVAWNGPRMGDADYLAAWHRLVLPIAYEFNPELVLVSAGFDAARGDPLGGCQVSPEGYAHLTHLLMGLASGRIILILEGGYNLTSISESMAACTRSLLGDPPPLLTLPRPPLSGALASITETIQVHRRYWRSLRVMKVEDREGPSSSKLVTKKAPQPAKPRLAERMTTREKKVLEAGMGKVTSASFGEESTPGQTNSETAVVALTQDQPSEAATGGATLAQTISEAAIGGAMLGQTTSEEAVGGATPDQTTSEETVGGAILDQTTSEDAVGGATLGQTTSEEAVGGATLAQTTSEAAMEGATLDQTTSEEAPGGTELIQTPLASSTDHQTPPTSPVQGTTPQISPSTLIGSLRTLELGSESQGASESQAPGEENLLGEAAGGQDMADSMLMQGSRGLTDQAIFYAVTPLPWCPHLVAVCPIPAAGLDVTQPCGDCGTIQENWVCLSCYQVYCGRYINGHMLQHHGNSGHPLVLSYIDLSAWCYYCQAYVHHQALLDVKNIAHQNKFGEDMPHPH
Nature of the data set: Inhibition of C-terminal FLAG-tagged full-length recombinant human HDAC6 (1 to 1215 residues) expressed in Sf9 insect cells using a fluorogenic substrate preincubated for 30 mins followed by substrate addition measured after 30 mins by fluorescence based assay.

The nature of data set [2]: Lipophilicity, logP of compound. It counts as physicochemical. Particulars: octanol/water.
The nature of data set [3]: Solubility of compound. It counts as physicochemical.
Data set [4] can be described thus: Stability of compound at pH 7.4 measured after 24 hrs. In kind it is physicochemical. As to conditions: buffer, read-out: Stability.
A further data set addresses T2, Histone deacetylase 8 (Homo sapiens, UniProt Q9BY41).
T2 sequence (Q9BY41 whole entry): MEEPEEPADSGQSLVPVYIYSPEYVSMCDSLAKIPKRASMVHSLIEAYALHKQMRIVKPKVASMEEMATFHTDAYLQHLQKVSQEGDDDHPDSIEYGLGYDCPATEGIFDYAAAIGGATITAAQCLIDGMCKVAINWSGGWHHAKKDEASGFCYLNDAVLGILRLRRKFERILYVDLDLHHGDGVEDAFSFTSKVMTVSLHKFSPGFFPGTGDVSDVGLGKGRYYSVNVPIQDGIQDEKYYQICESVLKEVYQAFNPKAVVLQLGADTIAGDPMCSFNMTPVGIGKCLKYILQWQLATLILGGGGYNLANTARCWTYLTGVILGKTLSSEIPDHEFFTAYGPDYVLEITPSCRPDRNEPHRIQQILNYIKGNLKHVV
Put plainly: Inhibition of C-terminal His-tagged full-length recombinant human HDAC8 (1 to 377 residues) expressed in Sf9 insect cells using a fluorogenic substrate preincubated for 30 mins followed by substrate addition measured after 30 mins by fluorescence based assay.

The target of data set [5] is T3, Histone deacetylase 5 (Homo sapiens, UniProt Q9UQL6). Put plainly: Inhibition of C-terminal His-tagged recombinant human HDAC5 catalytic domain (656 to 1122 residues) expressed in baculovirus infected Sf9 insect cells using a fluorogenic substrate preincubated for 30 mins followed by substrate addition measured after 30 mins by fluorescence based assay relative to control. Particulars: time 60.0 min.

Data set [6] has as its target T3, Histone deacetylase 5. Put plainly: Inhibition of C-terminal His-tagged recombinant human HDAC5 catalytic domain (656 to 1122 residues) expressed in baculovirus infected Sf9 insect cells using a fluorogenic substrate preincubated for 30 mins followed by substrate addition measured after 30 mins by fluorescence based assay.
The target in data set [7] is T4, Histone deacetylase 1 (Homo sapiens, UniProt Q13547). Put plainly: Inhibition of C-terminal 6xHis-tagged full-length recombinant human HDAC1 (1 to 482 residues) expressed in Sf9 insect cells using a fluorogenic substrate preincubated for 30 mins followed by substrate addition measured after 30 mins by fluorescence based assay.
Data set [8] has as its target T4, Histone deacetylase 1. Nature of the data set: Inhibition of C-terminal 6xHis-tagged full-length recombinant human HDAC1 (1 to 482 residues) expressed in Sf9 insect cells using a fluorogenic substrate preincubated for 30 mins followed by substrate addition measured after 30 mins by fluorescence based assay relative to control. As to conditions: time 60.0 min.
Data set [9] relates to 661W. Nature of the data set: Effect on acetylated alpha-tubulin level in H2O2-induced oxidative stress in mouse 661W cells at 10 uM incubated for 24 hrs followed by H2O2 treatment for 3 hrs by Western blot analysis. Particulars: time 27.0 hrs. It counts as functional, cell-based. (In general: Immunoblotting shows a protein as a band on a membrane.)
The test system of data set [10] is 661W. Nature of the data set: Effect on acetylated histone H3 level in H2O2-induced oxidative stress in mouse 661W cells at 10 uM incubated for 24 hrs followed by H2O2 treatment for 3 hrs by Western blot analysis. In kind it is functional, cell-based. Particulars: time 27.0 hrs.
For data set [11], the system named is 661W. Nature of the data set: Cytoprotective effect against H2O2-induced oxidative stress in mouse 661W cells assessed as increase in acetylated alpha-tubulin level at 10 uM incubated for 24 hrs followed by H2O2 treatment for 3 hrs by immunofluorescence analysis. It counts as functional, cell-based. As to conditions: time 27.0 hrs.
Data set [12] deals with T5, Histone deacetylase 8 (Homo sapiens) (UniProt Q9BY41).
T5 sequence (whole entry): T2 sequence (Q9BY41 whole entry)
Nature of the data set: Inhibition of C-terminal His-tagged full-length recombinant human HDAC8 (1 to 377 residues) expressed in Sf9 insect cells using a fluorogenic substrate preincubated for 30 mins followed by substrate addition measured after 30 mins by fluorescence based assay relative to control. Particulars: time 60.0 min.

Consider 12 compounds from ChEMBL document CHEMBL5579854, “Targeting Relevant HDACs to Support the Survival of Cone Photoreceptors in Inherited Retinal Diseases: Identification of a Potent Pharmacological Tool with In Vitro and In Vivo Efficacy” (J Med Chem, 2024).

pIC50: −log10 of the molar value. In brackets after ≈: the same amount, converted by molar mass. Activity calls are given as the source filed them. The calls are words filed in the database; no cut-off is given here.

Broadly, the pIC50 is the IC50 on a negative log10 scale, so that one unit is a factor of ten. For orientation: logP means a log measure of how a compound divides between an organic and an aqueous phase. Higher therefore signals a more lipophilic compound. Usually solubility stands for the dissolved amount per volume that the medium holds. High values mean a readily soluble substance, low ones a poorly soluble substance. Broadly, the inhibition is the change of the read-out against control, counted positive when it falls.

T4 sequence (Q13547 whole entry, the tested form may be a part): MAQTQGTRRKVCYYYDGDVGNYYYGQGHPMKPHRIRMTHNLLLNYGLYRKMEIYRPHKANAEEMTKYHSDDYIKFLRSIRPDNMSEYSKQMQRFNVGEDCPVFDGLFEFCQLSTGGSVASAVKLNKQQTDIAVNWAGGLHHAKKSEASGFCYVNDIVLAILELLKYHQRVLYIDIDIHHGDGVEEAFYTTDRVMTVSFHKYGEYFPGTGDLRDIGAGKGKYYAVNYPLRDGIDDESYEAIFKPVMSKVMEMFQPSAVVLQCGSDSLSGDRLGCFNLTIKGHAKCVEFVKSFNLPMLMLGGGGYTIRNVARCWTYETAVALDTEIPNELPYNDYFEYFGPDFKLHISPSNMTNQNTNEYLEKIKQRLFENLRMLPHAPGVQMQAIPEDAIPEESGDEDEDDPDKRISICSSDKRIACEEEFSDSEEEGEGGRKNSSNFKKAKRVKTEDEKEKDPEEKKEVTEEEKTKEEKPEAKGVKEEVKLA
T3 sequence (Q9UQL6 whole entry, the tested form may be a part): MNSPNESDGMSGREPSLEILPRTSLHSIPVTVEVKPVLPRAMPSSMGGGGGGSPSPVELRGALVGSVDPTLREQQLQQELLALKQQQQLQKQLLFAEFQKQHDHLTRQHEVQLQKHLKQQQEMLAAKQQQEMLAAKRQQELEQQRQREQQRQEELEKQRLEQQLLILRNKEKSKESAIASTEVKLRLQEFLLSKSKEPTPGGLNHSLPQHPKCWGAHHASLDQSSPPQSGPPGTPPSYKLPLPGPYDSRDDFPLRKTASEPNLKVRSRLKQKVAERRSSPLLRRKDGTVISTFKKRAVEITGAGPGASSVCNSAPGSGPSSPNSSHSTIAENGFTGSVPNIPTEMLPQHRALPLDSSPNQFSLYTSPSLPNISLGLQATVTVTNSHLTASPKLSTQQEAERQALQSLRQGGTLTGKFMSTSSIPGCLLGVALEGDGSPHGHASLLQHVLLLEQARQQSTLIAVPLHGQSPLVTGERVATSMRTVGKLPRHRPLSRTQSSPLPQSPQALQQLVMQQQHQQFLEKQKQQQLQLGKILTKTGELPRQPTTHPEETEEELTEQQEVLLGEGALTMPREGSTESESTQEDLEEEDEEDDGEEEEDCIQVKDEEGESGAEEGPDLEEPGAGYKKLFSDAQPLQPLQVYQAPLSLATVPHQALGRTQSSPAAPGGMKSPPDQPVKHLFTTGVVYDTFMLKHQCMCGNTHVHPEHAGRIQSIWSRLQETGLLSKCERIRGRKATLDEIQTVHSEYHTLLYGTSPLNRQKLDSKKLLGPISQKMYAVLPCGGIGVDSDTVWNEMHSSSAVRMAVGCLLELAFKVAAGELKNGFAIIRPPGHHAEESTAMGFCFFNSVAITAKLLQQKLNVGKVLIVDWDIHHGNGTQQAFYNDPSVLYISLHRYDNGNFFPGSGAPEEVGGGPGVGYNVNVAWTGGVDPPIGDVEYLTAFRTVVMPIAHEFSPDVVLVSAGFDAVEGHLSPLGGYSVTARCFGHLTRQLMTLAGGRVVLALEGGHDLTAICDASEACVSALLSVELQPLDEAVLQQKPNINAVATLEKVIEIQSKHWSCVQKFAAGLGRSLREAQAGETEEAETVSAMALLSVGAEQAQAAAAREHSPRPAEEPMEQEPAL

Regarding `O=C(NO)c1ccc(CNC(=S)N2CCc3c(c4ccccc4n3Cc3ccccc3)C2)cc1`, in data set [1], the pIC50 is below 5.00.

With `CN1CC2(CCN(Cc3ccc(C(=O)NO)cc3)CC2)c2ccccc21`, the log partition coefficient (logP) in data set [2] was 2.1. The same compound had a solubility in [3] of 97 µM (≈ 34.1 µg/mL). Besides, the remaining at 24 h in data set [4] was 71%.

In turn, `CC(/C=C/C(=O)NO)=C\[C@@H](C)C(=O)c1ccc(N(C)C)cc1` [TRICHOSTATIN] yielded a logP in [2] of 2.57.

With `CC1(C)c2ccccc2N(Cc2ccc(C(=O)NO)cc2)C1c1cccnc1` (stereo not drawn), the logP in data set [2] came to 2.04. Besides, the pIC50 in [1] is 7.39; on Histone deacetylase 8 it was 5.66; on Histone deacetylase 5 [6], below 5.00; at Histone deacetylase 1 [7], 5.27. In addition, the inhibition on Histone deacetylase 5 [5] came out at 14%. The same compound had a solubility in data set [3] of 285 µM (≈ 106 µg/mL). Further, in [4], the remaining at 24 h came to 97%.

In [2], `Cn1c2c(c3ccccc31)CN(Cc1ccc(C(=O)NO)cc1)CC2` yielded a logP of 1.97. Also, the solubility in [3] was determined as 200 µM (≈ 67.1 µg/mL). For the same compound, the remaining at 24 h in [4] came to 94%. The inhibition at Histone deacetylase 1 [8] was found to be 43%. On Histone deacetylase 1 [7], the pIC50 is below 5.00.

With `Cn1c2c(c3ccccc31)CN(C(=O)NCc1ccc(C(=O)NO)cc1)CC2`, the inhibition at Histone deacetylase 1 [8] worked out at 41%. In addition, the pIC50 at Histone deacetylase 1 [7] is below 5.00.

In turn, `CC(C)(C)OC(=O)N1CCC2(CC1)CN(Cc1ccc(C(=O)NO)cc1)c1ccccc12` displayed a logP in data set [2] of 2.5. Also, in data set [3], the solubility amounted to 223 µM (≈ 97.6 µg/mL). Besides, the remaining at 24 h in data set [4] turned out to be 74%.

Consider `CN1CCc2c(c3ccccc3n2Cc2ccc(C(=O)NO)cc2)C1` [TUBASTATIN A], for which the outcome in the data set with 661W [9] and in the data set with 661W [10] was inactive. In [2], this compound yielded a logP of 2.02. Further, in data set [3], the concentration in solution (solubility) came to 231 µM (≈ 77.5 µg/mL). In addition, in [4], the remaining at 24 h came to 75%. Further, the outcome in the data set with 661W [11] was Active.

In turn, `Cn1c2c(c3ccccc31)CN(C(=O)OCc1ccc(C(=O)NO)cc1)CC2` showed a logP in data set [2] of 3.2. For the same compound, the pIC50 on Histone deacetylase 8 is below 5.00. The concentration in solution in [3] (solubility) was 227 µM (≈ 86.1 µg/mL). In [12], the inhibition was 38%. Also, the remaining at 24 h in data set [4] came out at 90%.

As for `O=C(NO)c1ccc(NC(=O)N2CCc3c(c4ccccc4n3Cc3ccccc3)C2)cc1`, the logP in data set [2] came out at 3.99. Also, the solubility in data set [3] amounted to 141 µM (≈ 62.1 µg/mL). The remaining at 24 h in data set [4] was found to be 90%.

Turning to `CCN(CC)Cc1ccc(Cn2c3c(c4ccccc42)CN(C(=O)NCc2ccc(C(=O)NO)cc2)CC3)cc1`, the logP in [2] turned out to be 4.08. In addition, in data set [3], the solubility amounted to 295 µM (≈ 159 µg/mL). In [4], the remaining at 24 h came to 92%.

Turning to `O=C(NO)c1ccc(COC(=O)N2CCC3(CC2)CN(Cc2ccccc2)c2ccccc23)cc1`, in [2], the lipophilicity (logP) is 4.2. Besides, in data set [3], the concentration in solution (solubility) came to 156 µM (≈ 73.6 µg/mL). Also, the remaining at 24 h in [4] worked out at 64%.
